In patent US10407467B2, “Polymyxin derivatives and their use in combination therapy together with different antibiotics” (priority 2013, dated 2019):
Where a name gives a salt, the structure may show the parent alone. Bridge positions count the residues as written; N and C are the ends. Square brackets hold non-standard residues; d marks the D form. Peptide text beside a SMILES is read from it. * marks the point of attachment. ξ: configuration not given here. Thr(3ξ) = CC(O)[C@H](N)C(=O)O; Dab = NCC[C@H](N)C(=O)O; Inp = O=C(O)C1CCNCC1; X4 = NC1CCCC1C(=O)*; Ahx = NCCCCCC(=O)O

Tests used:
Assay type in all cases: cell-based
Klebsiella pneumoniae [1] = test: MIC, sole activity (no second agent); conditions: in the absence of Rifampicin; for MIC K. pneumoniae ATCC 4352: strain ATCC 4352; for MIC K. pneumoniae ATCC-BAA2146: strain ATCC-BAA2146; for MIC K. pneumoniae CCUG-59348: strain CCUG-59348
Outline: (§1)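 Up to four strains per species were tested in cation-adjusted Mueller-Hinton broth, with inoculum made by direct colony suspension from 18-24 hour Mueller-Hinton agar plates, adjusted to 0.5 McFarland. Duplicates differing by under 2-fold gave the lower value; greater spread voided the run. Values are relative to Polymyxin B.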

Escherichia coli [2] = test: MIC, sole activity (no second agent); conditions: in the absence of Rifampicin
Outline: as §1

Pseudomonas aeruginosa [3] = test: MIC, sole activity (no second agent); conditions: in the absence of Rifampicin; for MIC P. aeruginosa ATCC 27853: strain ATCC27853; for MIC P. aeruginosa ATCCCRM-9027: strain ATCCCRM-9027; for MIC P. aeruginosa CCUG 59626: strain CCUG 59626
Outline: as §1

Acinetobacter baumannii [4] = test: MIC, sole activity (no second agent); conditions: in the absence of Rifampicin; for MIC A. baumannii ATCCBAA-747: strain ATCCBAA-747; for MIC A. baumannii NCTC 13423: strain NCTC13423; for MIC A. baumannii ATCC13424: strain ATCC13424
Outline: as §1

Klebsiella pneumoniae [5] = test: MIC, compound in combination with a second agent (broth microdilution); conditions: for MIC K. pneumoniae ATCC 4352: strain ATCC 4352
Outline: (§2)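 Read-out is the total-drug MIC of a 1:1 weight ratio combination with another agent, e.g. rifampicin. Duplicates within 2-fold gave the lower value; wider spread meant a non-valid assay. Where compounds were tested multiple times, the mode is given.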

Escherichia coli [6] = test: as above; conditions: 1:1 (wt:wt) combination with Rifampicin
Outline: as §2

Pseudomonas aeruginosa [7] = test: as above; conditions: 1:1 (wt:wt) combination with Rifampicin
Outline: as §2

Acinetobacter baumannii [8] = test: as above; conditions: 1:1 (wt:wt) combination with Rifampicin
Outline: as §2

[9] = 1:1 (wt:wt) combination with Rifampicin, MIC = total drug concentration, strain ATCC-BAA-2146
[10] = 1:1 (wt:wt) combination with Rifampicin, MIC = total drug concentration, strain CCUG-59348
[11] = 1:1 (wt:wt) combination with Rifampicin, MIC = total drug concentration, strain NCTC 13438
[12] = MIC = total drug concentration, strain ATCC25922
[13] = MIC = total drug concentration, strain NCTC9001
[14] = MIC = total drug concentration, strain ATCC CRM-9027
[15] = MIC = total drug concentration, strain ATCC-47
[16] = MIC = total drug concentration, strain CCUG 59626
[17] = MIC = total drug concentration, strain ATCC BAA-747
[18] = MIC = total drug concentration, strain CCUG57249
[19] = MIC = total drug concentration, strain NCTC 13423
[20] = MIC = total drug concentration, strain NCTC 13424
[21] = 1:1 (wt:wt) combination with Rifampicin, MIC = total drug concentration
[22] = MIC = total drug concentration, strain ATCC 27853
[23] = 1:1 (wt:wt) combination with Rifampicin, MIC is total drug concentration
[24] = MIC is total drug concentration
[25] = Ratio of Compound to Rifampicin 1:1, total drug concentration
[26] = Ratio of Compound to Rifampicin 1:3, total drug concentration
[27] = Ratio of Compound to Rifampicin 3:1, total drug concentration

Compound | MIC K. pneumoniae ATCC 4352 (Klebsiella pneumoniae [1]) [micrograms/mL] | MIC P. aeruginosa ATCC 27853 (Pseudomonas aeruginosa [3]) [micrograms/mL] | MIC P. aeruginosa ATCCCRM-9027 (Pseudomonas aeruginosa [3]) [micrograms/mL] | MIC A. baumannii ATCCBAA-747 (Acinetobacter baumannii [4]) [micrograms/mL] | MIC A. baumannii NCTC 13423 (Acinetobacter baumannii [4]) [micrograms/mL] | MIC K. pneumoniae ATCC-BAA-2146 (Klebsiella pneumoniae [5]; [9]) [micrograms/mL] | MIC K. pneumoniae CCUG-59348 (Klebsiella pneumoniae [5]; [10]) [micrograms/mL] | MIC K. pneumoniae NCTC 13438 (Klebsiella pneumoniae [5]; [11]) [micrograms/mL] | MIC E. coli ATCC25922 (Escherichia coli [6]; [12]) [micrograms/mL] | MIC E. coli NCTC9001 (Escherichia coli [6]; [13]) [micrograms/mL] | MIC P. aeruginosa ATCC CRM-9027 (Pseudomonas aeruginosa [7]; [14]) [micrograms/mL] | MIC P. aeruginosa ATCC-47 (Pseudomonas aeruginosa [7]; [15]) [micrograms/mL] | MIC P. aeruginosa CCUG 59626 (Pseudomonas aeruginosa [7]; [16]) [micrograms/mL] | MIC A. baumannii ATCC BAA-747 (Acinetobacter baumannii [8]; [17]) [micrograms/mL] | MIC A. baumannii CCUG57249 (Acinetobacter baumannii [8]; [18]) [micrograms/mL] | MIC A. baumannii NCTC 13423 (Acinetobacter baumannii [8]; [19]) [micrograms/mL] | MIC A. baumannii NCTC 13424 (Acinetobacter baumannii [8]; [20]) [micrograms/mL] | MIC K. pneumoniae ATCC-BAA2146 (Klebsiella pneumoniae [1]) [micrograms/mL] | MIC K. pneumoniae ATCC 4352 (Klebsiella pneumoniae [5]; [21]) [micrograms/mL] | MIC P. aeruginosa ATCC 27853 (Pseudomonas aeruginosa [7]; [22]) [micrograms/mL] | other results
CC(C)C[C@@H]1NC(=O)[C@@H](Cc2ccccc2)NC(=O)[C@H](CCN)NC(=O)[C@@H](NC(=O)[C@H](CCN)NC(=O)[C@@H](NC(=O)CCCCCN)C(C)O)CCNC(=O)[C@H](C(C)O)NC(=O)[C@H](CCN)NC(=O)[C@H](CCN)NC1=O (stereo partly shown) [Example 2, 6-Aminohexanoyl polymyxin B nonapeptide] (H-[Ahx][Thr(3ξ)][Dab][Dab][Dab][dF]L[Dab][Dab][Thr(3ξ)]; lactam 4-C) | 0.5 | 0.5 | 0.25 | 8 | 0.5 | 0.5 | 4 | 0.5 | 0.125 | 0.5 | 0.25 | 0.25 | 0.125 | ≤0.06 | ≤0.06 | ≤0.06 | ≤0.06 |  |  |  | MIC E. coli ATCC25922 (Escherichia coli [2]; strain ATCC25922): 2 micrograms/mL; MIC E. coli NCTC9001 (Escherichia coli [2]; strain NCTC9001): 8 micrograms/mL
CC(C)C[C@@H]1NC(=O)[C@@H](Cc2ccccc2)NC(=O)[C@H](CCN)NC(=O)[C@@H](NC(=O)[C@H](CCN)NC(=O)[C@@H](NC(=O)C2CCCC2N)C(C)O)CCNC(=O)[C@H](C(C)O)NC(=O)[C@H](CCN)NC(=O)[C@H](CCN)NC1=O (stereo partly drawn) [Example 7, (1R,S/2R,S)-2-Aminocyclopentane-carbonyl polymyxin B nonapeptide] (X4-[Thr(3ξ)][Dab][Dab][Dab][dF]L[Dab][Dab][Thr(3ξ)]; lactam 3-C) | 0.5 | 0.125 | 0.125 | 1 | 1 | 0.25 | 4 | 0.5 | ≤0.06 | 0.25 | 0.25 | 0.25 | 0.125 | ≤0.06 | ≤0.06 | ≤0.06 | 0.125 | >32 | 0.125 | 0.125 | MIC K. pneumoniae CCUG-59348 (Klebsiella pneumoniae [1]): >32 micrograms/mL; MIC P. aeruginosa ATCC-47 (Pseudomonas aeruginosa [3]; strain ATCC-47): 1 micrograms/mL; MIC P. aeruginosa CCUG 59626 (Pseudomonas aeruginosa [3]): 0.125 micrograms/mL; MIC A. baumannii ATCC13424 (Acinetobacter baumannii [4]): 2 micrograms/mL; MIC A. baumannii CCUG57249 (Acinetobacter baumannii [4]; strain CCUG 57249): 2 micrograms/mL
CC(C)C[C@@H]1NC(=O)[C@@H](Cc2ccccc2)NC(=O)[C@H](CCN)NC(=O)[C@@H](NC(=O)[C@H](CCN)NC(=O)[C@@H](NC(=O)C2CCNCC2)C(C)O)CCNC(=O)[C@H](C(C)O)NC(=O)[C@H](CCN)NC(=O)[C@H](CCN)NC1=O (stereo partly shown) [Example 29, 4-piperidinecarbonyl polymyxin B nonapeptide, trifluoroacetate] (H-[Inp][Thr(3ξ)][Dab][Dab][Dab][dF]L[Dab][Dab][Thr(3ξ)]; lactam 4-C) |  |  |  |  |  | 0.25 | 4 | 0.5 | 0.125 | 0.25 | 0.125 | 0.25 | 0.125 | ≤0.06 | 0.125 | ≤0.06 | 0.125 | >32 | ≤0.06 | 0.125 | MIC K. pneumoniae CCUG-59348 (Klebsiella pneumoniae [1]): >32 micrograms/mL; MIC P. aeruginosa CCUG 59626 (Pseudomonas aeruginosa [3]): 0.125 micrograms/mL; MIC A. baumannii ATCC13424 (Acinetobacter baumannii [4]): 2 micrograms/mL; MIC K. pneumoniae ATCC-BAA-2146 (Klebsiella pneumoniae [5]; [23]): 0.25 micrograms/mL; MIC K. pneumoniae CCUG-59348 (Klebsiella pneumoniae [5]; [23]): 4 micrograms/mL; MIC K. pneumoniae NCTC 13438 (Klebsiella pneumoniae [5]; [23]): 0.5 micrograms/mL; MIC E. coli ATCC25922 (Escherichia coli [6]; [24]): 0.125 micrograms/mL; MIC E. coli NCTC9001 (Escherichia coli [6]; [24]): 0.25 micrograms/mL; MIC P. aeruginosa ATCC 27853 (Pseudomonas aeruginosa [7]; [24]): 0.125 micrograms/mL; MIC P. aeruginosa ATCC CRM-9027 (Pseudomonas aeruginosa [7]; [24]): 0.125 micrograms/mL; MIC P. aeruginosa ATCC-47 (Pseudomonas aeruginosa [7]; [24]): 0.25 micrograms/mL; MIC P. aeruginosa CCUG 59626 (Pseudomonas aeruginosa [7]; [24]): 0.125 micrograms/mL; MIC A. baumannii ATCC BAA-747 (Acinetobacter baumannii [8]; [24]): ≤0.06 micrograms/mL; MIC A. baumannii CCUG57249 (Acinetobacter baumannii [8]; [24]): 0.125 micrograms/mL; MIC A. baumannii NCTC 13423 (Acinetobacter baumannii [8]; [24]): ≤0.06 micrograms/mL; MIC A. baumannii NCTC 13424 (Acinetobacter baumannii [8]; [24]): 0.125 micrograms/mL
Polymyxin B nonapeptide [PMBN, reference compound] |  |  |  |  |  | 1 | 4 |  | 0.5 | 1 | 0.125 | 0.25 | 0.125 | 0.25 | 1 | 0.5 | 0.5 |  | 0.25 | 0.125 | MIC K. pneumoniae ATCC-BAA-2146 (Klebsiella pneumoniae [5]; [25]): 2 micrograms/mL; MIC K. pneumoniae CCUG-59348 (Klebsiella pneumoniae [5]; [25]): 4 micrograms/mL; MIC K. pneumoniae NCTC 13438 (Klebsiella pneumoniae [5]; [25]): 2 micrograms/mL; MIC K. pneumoniae ATCC-BAA-2146 (Klebsiella pneumoniae [5]; [26]): 2 micrograms/mL; MIC K. pneumoniae CCUG-59348 (Klebsiella pneumoniae [5]; [26]): 4 micrograms/mL; MIC K. pneumoniae NCTC 13438 (Klebsiella pneumoniae [5]; [26]): 2 micrograms/mL; MIC K. pneumoniae ATCC-BAA-2146 (Klebsiella pneumoniae [5]; [27]): 2 micrograms/mL; MIC K. pneumoniae CCUG-59348 (Klebsiella pneumoniae [5]; [27]): 8 micrograms/mL; MIC K. pneumoniae NCTC 13438 (Klebsiella pneumoniae [5]; [27]): 2 micrograms/mL
